Measured values published in patent US9655899B2, “Compositions and methods for treating cancer” (Merck Sharp & Dohme Corp., priority 2012, dated 2017).
Like-named read-outs stand apart in the source and are kept apart here.

How the values were obtained:
NCI-H460 [1] = assay: PKMYT1 siRNA knockdown proliferation assay (ViaLight, 72 hours); format: cell-based, human; details: for dose response curves in control (CT) versus PKMYT1 siRNA transfected cells / EC50: 72 hours; for EC50: Homo sapiens, NCI-H460, 72 h, n=3, read-out: anti-proliferative EC50
Experimental: (§1) For the knockdown studies, NCI-H460 and KNS62, two non-small cell lung cancer cell lines, American Type Culture Collection, Manassas, Va., were transfected with siRNA pools (SMARTpool, Dharmacon, Thermo Fisher Scientific, Waltham, Mass.) with either non-targeting control or PKMYT1 sequences. […] To approximate cell content, ViaLight (Lonza, Basel, Switzerland) was used according to manufacturer's protocol. Samples were run in triplicate and growth was calculated by determining the percentage of the control raw value for each treatment.

KNS62 [2] = assay: as above; format: cell-based, human; details: for dose response curves in control (CT) versus PKMYT1 siRNA transfected cells / EC50: 72 hours; for EC50: Homo sapiens, KNS-62, 72 h, n=2, read-out: anti-proliferative EC50
Experimental: as §1

[3] = system: TOV21G ovarian cancer cells; assay: Flow cytometry for DNA double strand breaks (γH2AX) and BrdU uptake; format: cell-based, human; details: 150 nM
Experimental: (§2) To detect DNA double strand breaks, cells were stained with a FITC-conjugated anti-γH2AX (S139) antibody (kit 17-344, Millipore, Billerica, Mass.) after having been fixed overnight in ice-cold 70% ethanol Propidium iodide (PI)/RNase solution (BD Biosciences, Franklin Lakes, N.J.) was used to detect total DNA content. For studies interrogating premature mitosis, an anti-pHH3-Alexa 647 antibody (BD Biosciences 558217) was added. For synchronization studies, cells were incubated in serum-free medium for 36 hours, followed by replenishment with 20% FBS. One hour prior to each harvest, cells were pulsed with 10 μM bromodeoxyuridine (BrdU). Cells were fixed and stained for BrdU and DNA content with an anti-BrdU FITC-conjugated antibody and 7-aminoactinomycin-D (7-AAD) dye, respectively, according to the instructions in the BD Pharmingen™ FITC BrdU Flow Kit (BD Biosciences, Franklin Lakes, N.J.). All cytometry data were collected on the BD LSR II flow cytometer using the BD FACS Diva™ software (BD Biosciences, Franklin Lakes, N.J.), and the results were analyzed in FlowJo version 7.5.

pCDK1^T14 = assay: Western blot, CDK1 T14 phosphorylation; format: cell-based, human; details: six cell lines, possible exception of A427; 2 hours
Text: (§3) Cells were lysed in mammalian protein extraction reagent (MPER, Thermo Fisher 78505, Waltham, Mass.) and then subjected to SDS-PAGE and transferred onto nitrocellulose or PVDF membranes. Antibodies used for Western blotting are from the following sources: total CDK1, pCDK1^Y15, pCDK1^T14, pCHK1^S345, pStathmin^S38, pLaminA/C^S22, pCDK substrate motif, γH2AX, Cyclin A, and total PKMYT1 from Cell Signaling Technologies (Beverly, Mass.); actin-HRP from Santa Cruz Biotechnology (Santa Cruz, Calif.); secondary HRP-conjugated anti-mouse and rabbit antibodies from GE Healthcare (Waukesha, Wis.). Blots were exposed with SuperSignal West Femto chemiluminescent substrate (Thermo Fisher Pierce, Waltham, Mass.).

ES-2 cells [4] = assay: Flow cytometry for γH2AX in serum-starved cells with or without FBS; format: cell-based, human; details: 500 nM; 24 hours; 20% FBS
Experimental: as §2

NCI-H460 [5] = assay: Proliferation assay; format: cell-based; details: Homo sapiens
Experimental: (§4) All cancer cell lines were grown in medium recommended by the cell line vendor (ATCC). Tissue culture media, serum, and supplements were purchased from Sigma-Aldrich® (St. Louis, Mo.). For the proliferation assay screen (FIG. 1), cells were plated in 384-well tissue culture plates and grown under compound or vehicle treatment. After 96 hours, CellTiter-Glo (Promega, Madison, Wis.) was used according to the manufacturer's protocol to approximate cell content. Samples were run in triplicate and growth was calculated as the CellTiter-Glo raw value of treated samples relative to vehicle-treated control wells.

[6] = system: A427 non-small cell lung cancer cell line; assay: Proliferation assay; format: cell-based; details: Homo sapiens, A-427
Experimental: as §4

ES-2 = assay: Proliferation assay; format: cell-based; details: Homo sapiens
Experimental: as §4

KNS62 [7] = assay: Proliferation assay; format: cell-based; details: Homo sapiens, KNS-62
Experimental: as §4

A431 = assay: Proliferation assay; format: cell-based; details: Homo sapiens, A-431
Experimental: as §4

[8] = system: colorectal cancer cell lines; assay: Cellular proliferation assay screen (CellTiter-Glo, 96 hours); format: cell-based; details: Homo sapiens, n=66
Experimental: as §4

[9] = system: neuroblastoma tumor cell lines; assay: as above; format: cell-based; details: Homo sapiens, n=7
Experimental: as §4

pCHK1^S345 = assay: Western blot, DNA damage response marker; format: cell-based, human; details: 2 hours
Text: as §3

ES-2 cells [10] = assay: Cell synchronization study, S-phase population (BrdU); format: cell-based, human
Experimental: For synchronization studies, cells were incubated in serum-free medium for 36 hours, followed by replenishment with 20% FBS. One hour prior to each harvest, cells were pulsed with 10 μM bromodeoxyuridine (BrdU). Cells were fixed and stained for BrdU and DNA content with an anti-BrdU FITC-conjugated antibody and 7-aminoactinomycin-D (7-AAD) dye, respectively, according to the instructions in the BD Pharmingen™ FITC BrdU Flow Kit (BD Biosciences, Franklin Lakes, N.J.). All cytometry data were collected on the BD LSR II flow cytometer using the BD FACS Diva™ software (BD Biosciences, Franklin Lakes, N.J.), and the results were analyzed in FlowJo version 7.5.

SK-MES-1 NSCLC model = assay: In vivo efficacy, xenograft; set-up: species or system mice; details: single agent, 60 mg/kg BID
Text: (§5) CD-1 Nu/Nu female mice aged 5-6 weeks were obtained from Charles River Laboratories (Wilmington, Del.) and housed in Applicants animal care facility at standard laboratory conditions and fed 2018S autoclaveable diet (Harlan Laboratories, Indianapolis, Ind.) and water ad libitum. The protocol was approved by Applicants' in-house animal care and use committee. Mice were inoculated with cells (1:1 Matrigel:PBS) subcutaneously (SC) into the right flank. […] Tumor volume and body weights were recorded bi-weekly.

[11] = system: A431 epidermoid tumor model; assay: In vivo efficacy, xenograft; set-up: species or system mice; details: single agent
Text: as §5

[12] = system: LoVo colorectal tumor model; assay: In vivo efficacy, xenograft; set-up: species or system mice; details: single agent, 60 mg/kg BID; treatment stopped on day 13
Text: as §5

NCI-H2122 NSCLC model = assay: In vivo efficacy, xenograft; set-up: species or system mice; details: single agent
Text: as §5

A427 xenograft = assay: In vivo efficacy, xenograft; set-up: species or system mice; details: 60 mg/kg BID, 28 days
Text: as §5

[13] = twice daily (BID) dosing
Text: as §5

LoVo cells [14] = assay: Flow cytometry for γH2AX at EC90; format: cell-based, human; details: EC90 concentration; 24 hours
Experimental: (§6) To detect DNA double strand breaks, cells were stained with a FITC-conjugated anti-γH2AX (S139) antibody (kit 17-344, Millipore, Billerica, Mass.) after having been fixed overnight in ice-cold 70% ethanol Propidium iodide (PI)/RNase solution (BD Biosciences, Franklin Lakes, N.J.) was used to detect total DNA content. For studies interrogating premature mitosis, an anti-pHH3-Alexa 647 antibody (BD Biosciences 558217) was added.

HT-29 cells [15] = assay: Flow cytometry for γH2AX at EC90; format: cell-based, human; details: EC90 concentration; 24 hours
Experimental: as §6

A2058 cells [16] = assay: Flow cytometry for γH2AX at EC90; format: cell-based, human; details: EC90 concentration; 24 hours
Experimental: as §6

522 cancer cell lines = assay: Cellular proliferation assay screen (CellTiter-Glo, 96 hours); format: cell-based, human; details: for EC50: Homo sapiens, 96 h
Experimental: as §4

LoVo cells [17] = assay: Flow cytometry for mitotic marker pHH3; format: cell-based, human; details: EC90 concentration; 24 hours
Experimental: as §6

HT-29 cells [18] = assay: Flow cytometry for mitotic marker pHH3; format: cell-based, human; details: EC90 concentration; 24 hours
Experimental: as §6

A2058 cells [19] = assay: Flow cytometry for mitotic marker pHH3; format: cell-based, human; details: EC90 concentration; 24 hours
Experimental: as §6

pCDK1^Y15 = assay: Western blot, WEE1 substrate phosphorylation; format: cell-based, human; details: all six cell lines; 2 hours
Text: as §3

O=C(NOC[C@H](O)CO)c1ccc(F)c(F)c1Nc1ccc(I)cc1F [PD-0325901, reference compound]
dose response curves in control (CT) versus PKMYT1 siRNA transfected cells (NCI-H460 [1]): identical dose response curves | dose response curves in control (CT) versus PKMYT1 siRNA transfected cells (KNS62 [2]): identical dose response curves

C=CCn1c(=O)c2cnc(Nc3ccc(N4CCN(C)CC4)cc3)nc2n1-c1cccc(C(C)(C)O)n1 [WEE1-1, 2-allyl-1-[6-(1-hydroxy-1-methylethyl)pyridin-2-yl]-6-{[4-(4-methylpiperazin-1-yl)phenyl]amino}-1,2-dihydro-3H-pyrazolo[3,4-d]pyrimidin-3-one]
share of DNA damage detected in BrdU-positive cells ([3]; 2 hours): 95% | share of DNA damage detected in BrdU-positive cells ([3]; 6 hours): 92% | cells staining positive for γH2AX ([3]; two hours of treatment, 1% to 2% in untreated growing cells): 23% | effect on pCDK1^T14 (pCDK1^T14): did not observe a WEE1-1-dependent effect | degree of DNA double strand breaks (γH2AX) under mitogen stimulation versus cells not restimulated (ES-2 cells [4]): appreciably larger | maximal effect of treatment upon PKMYT1 depletion (NCI-H460 [1]): not affected | EC50 (NCI-H460 [1]; PKMYT1 knocked down): 104 nM | EC50 (NCI-H460 [1]; non-targeting control siRNA): 677 nM | maximal effect of treatment upon PKMYT1 depletion (KNS62 [2]): not affected | EC50 (KNS62 [2]; PKMYT1 knocked down): 93 nM | EC50 (KNS62 [2]; non-targeting control siRNA): 487 nM | EC50 (NCI-H460 [5]): 535 nM | EC50 [6]: 116 nM | EC50 (ES-2): 256 nM | EC50 (KNS62 [7]): 487 nM | EC50 (A431): 170 nM | EC50 ([8]; read-out: EC50 range): ≥ 170 nM | EC50 ([8]; read-out: mean EC50): 1160 nM | EC50 ([9]; read-out: EC50 range): 120 to 450 nM | EC50 ([9]; read-out: mean EC50): 280 nM | lowest concentration with evidence of increased pCHK1^S345 (pCHK1^S345; ES-2, A2058, A431 and A427): 50 nM | activation of the DDR (pCHK1^S345) (pCHK1^S345; all six cell lines (ES-2, A2058, A431, A427, KNS62, NCI-H460)): dose-dependent activation of the DDR | change in the S-phase population by 8 hours (ES-2 cells [10]; 500 nM with 20% FBS): no detectable change | peak S-phase population (ES-2 cells [10]; 500 nM with 20% FBS after 36 hours serum withdrawal): about 50% | time of peak S-phase population post-FBS (ES-2 cells [10]; 500 nM with 20% FBS, vehicle peak at 12 to 14 hours): 24 h | Tumor growth inhibition (TGI) (SK-MES-1 NSCLC model): 92% | TGI [11]: 88% | tumor regression [12]: 13% | TGI (NCI-H2122 NSCLC model): 64% | final volumes of individual treated tumors versus initial volumes (A427 xenograft; all 10 tumors): smaller than their initial volumes | regression, final volume as % of the initial mean tumor volume (A427 xenograft; n=10): approximately 50% | maximum tolerated dose (MTD) [13]: 60 mg per kg | H2AX-positive cell population (LoVo cells [14]): 27% | H2AX-positive cell population (HT-29 cells [15]): 59% | H2AX-positive cell population (A2058 cells [16]): 8% | response on an adjusted scale (cell lines that were killed) (522 cancer cell lines; 450 nM, 33 of 305 cell lines, 96-hour proliferation assay, 0.25 or less = cell death): < 0.25 | EC50 (522 cancer cell lines; lower end of range, 2% (9/522) of cell lines): ≤ 100 nM | EC50 (522 cancer cell lines; upper end of range, 19% (98/522) of cell lines): ≥ 1000 nM | range of anti-proliferative EC50s (522 cancer cell lines; across cell lines screened): at least 10 fold | percentage of pHH3 positive cells (LoVo cells [17]): increased | mitotic (pHH3 positive) population with 4N DNA (HT-29 cells [18]): 43% | mitotic (pHH3 positive) population with <4N DNA (HT-29 cells [18]): 23% | percentage of pHH3 positive cells (A2058 cells [19]): increased | effect on pCDK1^Y15 (pCDK1^Y15): dose-dependent reduction

N.N.O=C([O-])C1(C(=O)[O-])CCC1.[Pt+2] [carboplatin, reference compound]
dose response curves in control (CT) versus PKMYT1 siRNA transfected cells (NCI-H460 [1]): identical dose response curves | dose response curves in control (CT) versus PKMYT1 siRNA transfected cells (KNS62 [2]): identical dose response curves

COc1cccc2c1C(=O)c1c(O)c3c(c(O)c1C2=O)C[C@@](O)(C(=O)CO)C[C@@H]3O[C@H]1C[C@H](N)[C@H](O)[C@H](C)O1 [doxorubicin, reference compound]
dose response curves in control (CT) versus PKMYT1 siRNA transfected cells (NCI-H460 [1]): identical dose response curves | dose response curves in control (CT) versus PKMYT1 siRNA transfected cells (KNS62 [2]): identical dose response curves
